In USRE48335E1, “Polymyxin derivatives as antimicrobial compounds” (priority 2014, dated 2020):
In brackets after ≈: the same amount, converted by molar mass. Starred links: 1 amine or outer side, 2 acyl side, 3 side chain; linkers in the order of their positions; H or OH if unused. Positions of bridges follow the written chain, without caps; N, C: chain ends. Non-standard residues stand in square brackets, D forms with d. Residues, ends and D or L forms follow the SMILES beside them. ξ: configuration not given here. *: point of attachment. X2 = CC(C)C[C@@H](CC(=O)[C@H](CCN)N[*:1])C(=O)[*:2]; Benzoyl(3-CF3) = O=C(c1cccc(C(F)(F)F)c1)*; X9 = Cc1ccc(C(=O)*)cc1C(F)(F)F; Thr(3ξ) = CC(O)[C@H](N)C(=O)O; X10 = O=C(c1cc(F)cc(Cl)c1)*; dNle = CCCC[C@@H](N)C(=O)O; Octanoyl = CCCCCCCC(=O)*; Dab = NCC[C@H](N)C(=O)O; Abu = CC[C@H](N)C(=O)O; Dap = NC[C@H](N)C(=O)O

How the values were obtained:
P. aeruginosa ATCC 27853 = assay: In vivo efficacy in mouse blood infection model (neutropenic Swiss mice); conditions: compound, free base 4 mg/kg intravenously 2 h after inoculation, blood at 4 h
Procedure, shortened: (§1)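 Activity expressed as Δlog10 CFU/mL blood, treated minus saline control, 4 h after a single 4 mg/kg (free base) i.v. dose given 2 h post-infection. Bloodstream infection from i.v. early log-phase inoculum in Swiss mice made neutropenic by i.p. cyclophosphamide on days −4 (150 mg/kg) and −1 (100 mg/kg).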

[1] = tested on: K. pneumoniae FADDI-KP032; assay: as above; conditions: compound, free base 4 mg/kg intravenously 2 h after inoculation, blood at 4 h
Procedure, shortened: as §1

A. baumannii ATCC 19606 = assay: as above; conditions: compound, free base 4 mg/kg intravenously 2 h after inoculation, blood at 4 h
Procedure, shortened: as §1

Acinetobacter baumannii = tested on: Acinetobacter baumannii
Procedure, shortened: (§2)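 Lipopeptide TFA salts are serially diluted in cation-adjusted Mueller-Hinton broth and inoculated per the CLSI M100-S18 broth microdilution method. The MIC is then recorded, with polymyxin B sulphate included as a control.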

Enterobacter cloacae = tested on: Enterobacter cloacae
Procedure, shortened: as §2

Pseudomonas aeruginosa = tested on: Pseudomonas aeruginosa
Procedure, shortened: as §2

Klebsiella pneumoniae = tested on: Klebsiella pneumoniae
Procedure, shortened: as §2

SMILES	Δ log (Treated-Control at 4 h) (P. aeruginosa ATCC 27853) [log10 CFU/mL]	Δ log (Treated-Control at 4 h) [1] [log10 CFU/mL]	Δ log (Treated-Control at 4 h) (A. baumannii ATCC 19606) [log10 CFU/mL]	MIC (Acinetobacter baumannii) [µg/mL]	Minimum inhibitory concentration, Ab A ATCC 17978 (Acinetobacter baumannii) [µg/mL]	Minimum inhibitory concentration, Ab ATCC 19606 (Acinetobacter baumannii) [µg/mL]	Minimum inhibitory concentration, Ab FADDI-AB034 (Acinetobacter baumannii) [µg/mL]	Minimum inhibitory concentration, Ec FADDI-EC001 (Enterobacter cloacae) [µg/mL]	Minimum inhibitory concentration, Ec FADDI-EC003 (Enterobacter cloacae) [µg/mL]	Minimum inhibitory concentration, Ec FADDI-EC006 (Enterobacter cloacae) [µg/mL]	MIC (Pseudomonas aeruginosa) [µg/mL]	Minimum inhibitory concentration, Pa ATCC 27853 (Pseudomonas aeruginosa) [µg/mL]	Minimum inhibitory concentration, Pa FADDI-PA022 (Pseudomonas aeruginosa) [µg/mL]	Minimum inhibitory concentration, Pa FADDI-PA025 (Pseudomonas aeruginosa) [µg/mL]	MIC (Klebsiella pneumoniae) [µg/mL]
CCCCCCCC(=O)N[C@@H](CCN)C(=O)N[C@H](C(=O)N[C@H](CO)C(=O)N[C@H]1CCNC(=O)[C@H](C(C)O)NC(=O)[C@H](CCN)NC(=O)[C@H](CCN)NC(=O)[C@H](C(C)O)NC(=O)[C@@H](CC(C)C)CC(=O)[C@H](CCN)NC1=O)C(C)O (stereo partly drawn) [Compound 1] (Octanoyl-[Dab][Thr(3ξ)][dS][Dab][X2][Thr(3ξ)][Dab][Dab][Thr(3ξ)]; lactam 4-C)	0.40	−3.49	−2.13	<0.125	0.25 (≈ 0.221 µM)	1 (≈ 0.885 µM)	0.25 (≈ 0.221 µM)	<0.125	<0.125	0.5 (≈ 0.443 µM)	4 (≈ 3.54 µM)	4 (≈ 3.54 µM)	4 (≈ 3.54 µM)	>32	0.5 (≈ 0.443 µM)
CCCCCCCC(=O)N[C@@H](CCN)C(=O)N[C@H](C(=O)N[C@@H](CO)C(=O)N[C@H]1CCNC(=O)[C@H]([C@@H](C)O)NC(=O)[C@H](CCN)NC(=O)[C@H](CCN)NC(=O)[C@H]([C@@H](C)O)NC(=O)[C@@H](CC(C)C)NC(=O)[C@H](CCN)NC1=O)[C@@H](C)O [Compound 4] (Octanoyl-[Dab]TS[Dab][Dab][dL]T[Dab][Dab]T; lactam 4-C)	–	−1.84	–	8 (≈ 7.08 µM)	8 (≈ 7.08 µM)	8 (≈ 7.08 µM)	4 (≈ 3.54 µM)	0.5 (≈ 0.442 µM)	0.25 (≈ 0.221 µM)	1 (≈ 0.885 µM)	4 (≈ 3.54 µM)	4 (≈ 3.54 µM)	8 (≈ 7.08 µM)	>32	1 (≈ 0.885 µM)
CCCCCCCC(=O)N[C@@H](CCN)C(=O)N[C@H](C(=O)N[C@@H](CCN)C(=O)N[C@H]1CCNC(=O)[C@H]([C@@H](C)O)NC(=O)[C@H](CCN)NC(=O)[C@H](CCN)NC(=O)[C@H](CO)NC(=O)[C@@H](CC(C)C)NC(=O)[C@H](CCN)NC1=O)[C@@H](C)O [Compound 25] (Octanoyl-[Dab]T[Dab][Dab][Dab][dL]S[Dab][Dab]T; lactam 4-C)	–	−2.65	0.27	8 (≈ 7.08 µM)	4 (≈ 3.54 µM)	8 (≈ 7.08 µM)	4 (≈ 3.54 µM)	<0.125	0.25 (≈ 0.221 µM)	0.5 (≈ 0.443 µM)	>32	>32	0.5 (≈ 0.443 µM)	>32	0.25 (≈ 0.221 µM)
CC[C@@H]1NC(=O)[C@@H](CC(C)C)NC(=O)[C@H](CCN)NC(=O)[C@@H](NC(=O)[C@H](CN)NC(=O)[C@@H](NC(=O)[C@H](CCN)NC(=O)c2cccc(C(F)(F)F)c2)[C@@H](C)O)CCNC(=O)[C@H]([C@@H](C)O)NC(=O)[C@H](CCN)NC(=O)[C@H](CCN)NC1=O [Compound 106] ({Benzoyl(3-CF3)}-[Dab]T[Dap][Dab][Dab][dL][Abu][Dab][Dab]T; lactam 4-C)	−2.33	−2.77	–	0.5 (≈ 0.431 µM)	0.5 (≈ 0.431 µM)	0.5 (≈ 0.431 µM)	0.25 (≈ 0.216 µM)	0.25 (≈ 0.216 µM)	0.5 (≈ 0.431 µM)	0.25 (≈ 0.216 µM)	0.5 (≈ 0.431 µM)	0.5 (≈ 0.431 µM)	0.5 (≈ 0.431 µM)	2 (≈ 1.73 µM)	0.25 (≈ 0.216 µM)
CC[C@@H]1NC(=O)[C@@H](CC(C)C)NC(=O)[C@H](CCN)NC(=O)[C@@H](NC(=O)[C@H](CN)NC(=O)[C@@H](NC(=O)[C@H](CCN)NC(=O)c2ccc(C)c(C(F)(F)F)c2)[C@@H](C)O)CCNC(=O)[C@H]([C@@H](C)O)NC(=O)[C@H](CCN)NC(=O)[C@H](CCN)NC1=O [Compound 113] (X9-[Dab]T[Dap][Dab][Dab][dL][Abu][Dab][Dab]T; lactam 4-C)	−2.61	–	−1.60	0.5 (≈ 0.426 µM)	0.25 (≈ 0.213 µM)	0.5 (≈ 0.426 µM)	0.25 (≈ 0.213 µM)	1 (≈ 0.852 µM)	0.25 (≈ 0.213 µM)	1 (≈ 0.852 µM)	0.5 (≈ 0.426 µM)	1 (≈ 0.852 µM)	0.5 (≈ 0.426 µM)	2 (≈ 1.7 µM)	0.25 (≈ 0.213 µM)
CC[C@@H]1NC(=O)[C@@H](CC(C)C)NC(=O)[C@H](CCN)NC(=O)[C@@H](NC(=O)[C@H](CN)NC(=O)[C@@H](NC(=O)[C@H](CCN)NC(=O)c2cc(F)cc(Cl)c2)[C@@H](C)O)CCNC(=O)[C@H]([C@@H](C)O)NC(=O)[C@H](CCN)NC(=O)[C@H](CCN)NC1=O [Compound 116] (X10-[Dab]T[Dap][Dab][Dab][dL][Abu][Dab][Dab]T; lactam 4-C)	−2.81	–	−1.51	0.5 (≈ 0.437 µM)	0.5 (≈ 0.437 µM)	0.5 (≈ 0.437 µM)	0.25 (≈ 0.219 µM)	0.25 (≈ 0.219 µM)	0.25 (≈ 0.219 µM)	0.25 (≈ 0.219 µM)	0.5 (≈ 0.437 µM)	0.5 (≈ 0.437 µM)	0.5 (≈ 0.437 µM)	1 (≈ 0.874 µM)	0.5 (≈ 0.437 µM)
CC[C@@H]1NC(=O)[C@@H](Cc2ccccc2)NC(=O)[C@H](CCN)NC(=O)[C@@H](NC(=O)[C@H](CN)NC(=O)[C@@H](NC(=O)[C@H](CCN)NC(=O)c2cccc(C(F)(F)F)c2)[C@@H](C)O)CCNC(=O)[C@H]([C@@H](C)O)NC(=O)[C@H](CCN)NC(=O)[C@H](CCN)NC1=O [Compound 122] ({Benzoyl(3-CF3)}-[Dab]T[Dap][Dab][Dab][dF][Abu][Dab][Dab]T; lactam 4-C)	−3.70	–	−1.58	0.5 (≈ 0.419 µM)	0.25 (≈ 0.21 µM)	0.5 (≈ 0.419 µM)	0.5 (≈ 0.419 µM)	0.5 (≈ 0.419 µM)	0.5 (≈ 0.419 µM)	0.25 (≈ 0.21 µM)	2 (≈ 1.68 µM)	2 (≈ 1.68 µM)	2 (≈ 1.68 µM)	2 (≈ 1.68 µM)	0.5 (≈ 0.419 µM)
CCCC[C@H]1NC(=O)[C@H](CCN)NC(=O)[C@@H](NC(=O)[C@H](CN)NC(=O)[C@@H](NC(=O)[C@H](CCN)NC(=O)c2cccc(C(F)(F)F)c2)[C@@H](C)O)CCNC(=O)[C@H]([C@@H](C)O)NC(=O)[C@H](CCN)NC(=O)[C@H](CCN)NC(=O)[C@H]([C@@H](C)O)NC1=O [Compound 123] ({Benzoyl(3-CF3)}-[Dab]T[Dap][Dab][Dab][dNle]T[Dab][Dab]T; lactam 4-C)	−2.96	–	−1.53	1 (≈ 0.851 µM)	1 (≈ 0.851 µM)	1 (≈ 0.851 µM)	0.5 (≈ 0.425 µM)	0.5 (≈ 0.425 µM)	0.5 (≈ 0.425 µM)	1 (≈ 0.851 µM)	0.5 (≈ 0.425 µM)	0.5 (≈ 0.425 µM)	0.5 (≈ 0.425 µM)	2 (≈ 1.7 µM)	0.5 (≈ 0.425 µM)
C[C@@H]1NC(=O)[C@@H](Cc2ccccc2)NC(=O)[C@H](CCN)NC(=O)[C@@H](NC(=O)[C@H](CN)NC(=O)[C@@H](NC(=O)[C@H](CCN)NC(=O)c2cccc(C(F)(F)F)c2)[C@@H](C)O)CCNC(=O)[C@H]([C@@H](C)O)NC(=O)[C@H](CCN)NC(=O)[C@H](CCN)NC1=O [Compound 126] ({Benzoyl(3-CF3)}-[Dab]T[Dap][Dab][Dab][dF]A[Dab][Dab]T; lactam 4-C)	−3.97	−2.68	–	1 (≈ 0.848 µM)	1 (≈ 0.848 µM)	1 (≈ 0.848 µM)	1 (≈ 0.848 µM)	0.5 (≈ 0.424 µM)	0.5 (≈ 0.424 µM)	0.5 (≈ 0.424 µM)	0.25 (≈ 0.212 µM)	0.25 (≈ 0.212 µM)	1 (≈ 0.848 µM)	2 (≈ 1.7 µM)	0.5 (≈ 0.424 µM)
